This assay concerns the target T1, GST-tagged truncated human mutant G2019S LRRK2 (Homo sapiens, UniProt Q5S007, G2019S).
T1 construct: GST-tagged truncated human mutant G2019S LRRK2; purchased Life Technologies Corporation (Carlsbad, CA)
In words: LRRK2 G2019S Km ATP LanthaScreen assay. It is filed as biochemical. The note with it: 134 μM ATP (Km ATP), LRRKtide substrate, mean of several tests; for IC50: read-out: LRRK2 pIC50 (converted). The procedure, abridged: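 GST-tagged truncated human LRRK2 G2019S (1.25 nM enzyme solution) was preincubated 15 min with compound, then reacted 90 min at ambient temperature with fluorescein-LRRKtide (400 nM solution) and 134 μM ATP (Km) in Tris pH 8.5. EDTA stop; Tb anti-phospho-LRRKtide TR-FRET (520/495 ratio). IC50 from 4-parameter fits, mean of several runs.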
For orientation: Time-resolved FRET reads energy transfer from a long-lived donor to a nearby acceptor.

T1 sequence (Q5S007 970-2527 G2019S limits assumed): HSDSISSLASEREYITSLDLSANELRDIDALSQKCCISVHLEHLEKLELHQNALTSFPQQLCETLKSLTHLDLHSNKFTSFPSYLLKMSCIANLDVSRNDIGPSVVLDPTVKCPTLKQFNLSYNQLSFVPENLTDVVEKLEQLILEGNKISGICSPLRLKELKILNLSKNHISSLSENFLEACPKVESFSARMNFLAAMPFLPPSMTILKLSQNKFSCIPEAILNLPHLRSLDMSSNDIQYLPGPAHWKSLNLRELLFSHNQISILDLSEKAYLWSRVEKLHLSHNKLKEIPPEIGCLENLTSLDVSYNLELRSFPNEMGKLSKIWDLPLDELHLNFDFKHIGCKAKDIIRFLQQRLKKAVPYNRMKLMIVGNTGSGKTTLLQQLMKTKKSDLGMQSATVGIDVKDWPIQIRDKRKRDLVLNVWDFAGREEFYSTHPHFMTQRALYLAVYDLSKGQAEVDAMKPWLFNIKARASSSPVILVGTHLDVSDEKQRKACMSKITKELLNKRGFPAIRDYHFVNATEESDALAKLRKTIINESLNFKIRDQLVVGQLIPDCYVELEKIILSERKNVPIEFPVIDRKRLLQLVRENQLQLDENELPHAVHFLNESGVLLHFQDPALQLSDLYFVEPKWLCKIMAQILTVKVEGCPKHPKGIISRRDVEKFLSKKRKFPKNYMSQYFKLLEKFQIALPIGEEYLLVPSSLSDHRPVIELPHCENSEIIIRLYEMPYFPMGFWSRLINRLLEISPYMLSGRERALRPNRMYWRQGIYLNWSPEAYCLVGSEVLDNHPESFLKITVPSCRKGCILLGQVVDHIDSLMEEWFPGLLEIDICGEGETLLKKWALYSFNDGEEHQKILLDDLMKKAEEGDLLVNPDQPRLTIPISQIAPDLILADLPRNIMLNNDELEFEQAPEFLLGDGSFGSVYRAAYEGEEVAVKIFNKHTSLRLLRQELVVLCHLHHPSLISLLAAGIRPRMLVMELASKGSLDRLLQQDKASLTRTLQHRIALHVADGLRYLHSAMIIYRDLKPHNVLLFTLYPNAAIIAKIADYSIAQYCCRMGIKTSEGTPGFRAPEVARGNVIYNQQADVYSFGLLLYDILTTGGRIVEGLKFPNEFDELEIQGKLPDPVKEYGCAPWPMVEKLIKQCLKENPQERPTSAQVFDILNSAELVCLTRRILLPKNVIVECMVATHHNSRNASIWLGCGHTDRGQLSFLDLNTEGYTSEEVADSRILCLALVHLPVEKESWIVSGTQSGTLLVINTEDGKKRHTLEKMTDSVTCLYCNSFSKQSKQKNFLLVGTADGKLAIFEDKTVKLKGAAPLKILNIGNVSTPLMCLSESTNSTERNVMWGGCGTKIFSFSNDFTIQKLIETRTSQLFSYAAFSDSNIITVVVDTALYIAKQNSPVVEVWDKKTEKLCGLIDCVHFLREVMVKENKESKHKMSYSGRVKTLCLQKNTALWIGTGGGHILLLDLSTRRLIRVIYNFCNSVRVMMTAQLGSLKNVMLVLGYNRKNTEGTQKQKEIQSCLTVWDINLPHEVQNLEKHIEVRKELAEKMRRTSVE

Take `CC1(C2CCOC2)CC1C(=O)Nc1cc2cc(N3CCN(C4(C)COCC4O)CC3)c(Cl)cc2cn1` (single isomer, unassigned) [Ex-10.83, (1R,2R or 1S,2S, or 1R,2S, or 1S,2R)-N-[7-chloro-6-[4-((3R,4R or 3S,4S)-4-hydroxy-3-methyl-tetrahydrofuran-3-yl)piperazin-1-yl]-3-isoquinolyl]-2-methyl-2-tetrahydrofuran-3-yl-cyclopropanecarboxamide]: the IC50 is 0.525 nM.

For `CC1(C#N)CCN(c2cc3cc(NC(=O)C4CC4c4cncnc4)ncc3cc2Cl)CC1` (single isomer, unassigned) [Ex-5.15], the IC50 is 6.17 nM.

`CC1C(C(=O)Nc2cc3cc(N4CCN(C5(C)COCC5F)CC4)c(Cl)cc3cn2)C1c1ccn(C)n1` (single isomer, unassigned) [Ex-10.15]: the IC50 was 1.17 nM. Same read-out and setting: the figure for `CC1(c2ccccn2)CC1C(=O)Nc1cc2cc(N3CCN(C4(C)COCC4O)CC3)c(Cl)cc2cn1` (single isomer, unassigned) [Ex-11.2, (1R,2R)(3R,4R)— or (1R,2S)(3R,4R)— or (1S,2R)(3R,4R)— or (1S,2S)(3R,4R)— or (1R,2R)(3S,4S)— or (1R,2S)(3S,4S)— or (1S,2R)(3S,4S)— or (1S,2S)(3S,4S)-N-(7-chloro-6-(4-(4-hydroxy-3-methyltetrahydrofuran-3-yl)piperazin-1-yl)isoquinolin-3-yl)-2-methyl-2-(pyridin-2-yl)cyclopropane-1-carboxamide] is 45.7 nM.

Regarding `CC1(C2CCOC2)CC1C(=O)Nc1cc2cc(N3CCN(C4(C)COCC4O)CC3)c(Cl)cc2cn1` (single isomer, unassigned) [Ex-10.82, (1R,2R or 1S,2S, or 1R,2S, or 1S,2R)-N-[7-chloro-6-[4-((3R,4R or 3S,4S)-4-hydroxy-3-methyl-tetrahydrofuran-3-yl)piperazin-1-yl]-3-isoquinolyl]-2-methyl-2-tetrahydrofuran-3-yl-cyclopropanecarboxamide], the IC50 was 0.1 nM. The same measure, in the same setting: then `CC1(C)CC2(CCO1)CC2C(=O)Nc1cc2cc(N3CCN(C4(C)COCC4O)CC3)c(Cl)cc2cn1` (single isomer, unassigned) [Ex-7.5], with 0.155 nM. As to `O=C(Nc1cc2cc(N3CCc4[nH]ncc4C3)c(Cl)cc2cn1)C1CC1` [Ex-4.3], the “LRRK2 pIC50” value is 7.85.

For the molecule `Cn1cc(C2CC2C(=O)Nc2cc3cc(N4CCC(F)(C#N)CC4)c(Cl)cc3cn2)cn1` (centres unmarked) [Ex-4.11], the “LRRK2 pIC50” value was determined as 7.39. “(3R or 3S)-N-[6-[4-((3R,4R or 3S,4S)-4-fluoro-3-methyl-tetrahydrofuran-3-yl)piperazin-1-yl]-7-methyl-3-isoquinolyl]-5,5-dimethyl-tetrahydrofuran-3-carboxamide [Ex-10.93]”: the “LRRK2 pIC50” value worked out at 9.90. `O=C(Nc1cc2cc(N3CCN(C4COCC4O)CC3)c(Cl)cc2cn1)C1CC12CCOCC2` (single isomer, unassigned) [Ex-2.7, (R or S)-N-(7-chloro-6-(4-((3R,4R or 3S,4S)-4-hydroxytetrahydrofuran-3-yl)piperazin-1-yl)isoquinolin-3-yl)-6-oxaspiro[2.5]octane-1-carboxamide]: the IC50 is 380 nM. The same measure, in the same setting: then `CCC1C(C(=O)Nc2cc3cc(N4CCN(C5(C)COCC5F)CC4)c(C)cc3cn2)C1c1cnn(C)c1` (centres unmarked) [Ex-9.20], with 0.0813 nM; and `CC1(N2CCN(c3cc4cc(NC(=O)C5CC5C(F)F)ncc4cc3Cl)CC2)COCC1F` (single isomer, unassigned) [Ex-10.77, (1R,2R or 1S,2S)-N-[7-chloro-6-[4-((3R,4R or 3S,4S)-4-fluoro-3-methyl-tetrahydrofuran-3-yl)piperazin-1-yl]-3-isoquinolyl]-2-(difluoromethyl)cyclopropanecarboxamide], with 0.0813 nM. Take `O=C(Nc1cc2cc(N3CCN(C4COCC4O)CC3)c(Cl)cc2cn1)C1CC1` (single isomer, unassigned) [Ex-1.3, (3R,4R or 3S,4S)-N-(7-chloro-6-(4-(4-hydroxytetrahydrofuran-3-yl)piperazin-1-yl)isoquinolin-3-yl)cyclopropanecarboxamide]: the IC50 is 1.95 nM. The same measure, in the same setting: then `CC1(N2CCN(c3cc4cc(NC(=O)C5CC56CCOCC6)ncc4cc3Cl)CC2)COCC1O` (single isomer, unassigned) [Ex-2.1, (R or S)-N-(7-chloro-6-(4-((3R,4R or 3S,4S)-4-hydroxy-3-methyltetrahydrofuran-3-yl)piperazin-1-yl)isoquinolin-3-yl)-6-oxaspiro[2.5]octane-1-carboxamide], with 0.389 nM; and `CC1(N2CCN(c3cc4cc(NC(=O)C5CC6(CC6)C5)ncc4cc3Cl)CC2)COCC1O` (single isomer, unassigned) [Ex-2.17, N-(7-chloro-6-(4-((3R,4R or 3S,4S)-4-hydroxy-3-methyltetrahydrofuran-3-yl)piperazin-1-yl)isoquinolin-3-yl)spiro[2.3]hexane-5-carboxamide], with 0.955 nM; and `CCC1C(C(=O)Nc2cc3cc(N4CCN(C5(C)COCC5F)CC4)c(Cl)cc3cn2)C1c1ccccn1` (single isomer, unassigned) [Ex-10.90, (1R,2R,3R, or 1R,2S,3R, or 1S,2R,3S, or 1S,2S,3S)-N-[7-chloro-6-[4-((3R,4R or 3S,4S)-4-fluoro-3-methyl-tetrahydrofuran-3-yl)piperazin-1-yl]-3-isoquinolyl]-2-ethyl-3-(2-pyridyl)cyclopropanecarboxamide], with 2.04 nM. On the same count and under the same terms, the figure for `CCC1C(C(=O)Nc2cc3cc(N4CCN(C5(C)CCOC5)CC4)c(Cl)cc3cn2)C1c1cnn(C)c1` (single isomer, unassigned) [Ex-9.11] is 1.15 nM. The same measure, in the same setting: the figure for `CC(C)n1nccc1C1CC1C(=O)Nc1cc2cc(N3CCN(C4(C)COCC4O)CC3)c(Cl)cc2cn1` (single isomer, unassigned) [Ex-10.22, (1R,2R or 1S,2S)-N-[7-chloro-6-[4-((3R,4R or 3S,4S)-4-hydroxy-3-methyl-tetrahydrofuran-3-yl)piperazin-1-yl]-3-isoquinolyl]-2-(2-isopropylpyrazol-3-yl)cyclopropanecarboxamide] is 2.69 nM; for `COC1COCC1(C)N1CCN(c2cc3cc(NC(=O)C4CC45CCOCC5)ncc3cc2Cl)CC1` (single isomer, unassigned) [Ex-5.6] it is 316 nM; for `Cc1cc2cnc(NC(=O)C3CC34CCOC4)cc2cc1N1CCN(C2(C)COCC2O)CC1` (single isomer, unassigned) [Ex-6.2, (1R, 3S or 1S,3R, or 1R,3S, or 1S,3S)-N-(6-(4-((3R, 4R or 3S,4S)-4-hydroxy-3-methyltetrahydrofuran-3-yl)piperazin-1-yl)-7-methylisoquinolin-3-yl)-5-oxaspiro[2.4]heptane-1-carboxamide] it is 1.38 nM.

In the case of `COC1COCC1(C)N1CCN(c2cc3cc(NC(=O)C4CC45CCOCC5)ncc3cc2Cl)CC1` (single isomer, unassigned) [Ex-5.3], the IC50 is 0.372 nM. On to `Cc1cc2cnc(NC(=O)C3C(C)C3c3cnn(C)c3)cc2cc1N1CCN(C2(C)CCOC2)CC1` (single isomer, unassigned) [Ex-9.14], for which the IC50 was 0.0813 nM. Same read-out and setting: the figure for `CC1(C2CCOC2)CC1C(=O)Nc1cc2cc(N3CCN(C4(C)COCC4O)CC3)c(Cl)cc2cn1` (single isomer, unassigned) [Ex-10.88, (1R,2R or 1S,2S, or 1R,2S, or 1S,2R)-N-[7-chloro-6-[4-((3R,4R or 3S,4S)-4-hydroxy-3-methyl-tetrahydrofuran-3-yl)piperazin-1-yl]-3-isoquinolyl]-2-methyl-2-tetrahydrofuran-3-yl-cyclopropanecarboxamide] is 0.182 nM. For “(3R or 3S)-N-[6-[4-((3R,4R or 3S,4S)-4-fluoro-3-methyl-tetrahydrofuran-3-yl)piperazin-1-yl]-7-methyl-3-isoquinolyl]-5,5-dimethyl-tetrahydrofuran-3-carboxamide [Ex-10.95]”, the “LRRK2 pIC50” value is listed as 9.64.

As to `CC1(C)C(C(=O)Nc2cc3cc(N4CCN(C5(C)COCC5O)CC4)c(Cl)cc3cn2)C1C1CCCCO1` (single isomer, unassigned) [Ex-10.92, (1R,2R,3R, 1R,2S,3R, or 1S,2R,3S, or 1S,2S,3S)-N-[7-chloro-6-[4-((3R,4R or 3S,4S)-4-hydroxy-3-methyl-tetrahydrofuran-3-yl)piperazin-1-yl]-3-isoquinolyl]-2,2-dimethyl-3-tetrahydropyran-2-yl-cyclopropanecarboxamide], the IC50 was 1.95 nM.

As for `CC1(N2CCN(c3cc4cc(NC(=O)C5CCCOC5)ncc4cc3Cl)CC2)COCC1O` (single isomer, unassigned) [Ex-10.4, (3R or 3S)-N-(7-chloro-6-(4-((3R, 4R or 3S, 4S)-4-hydroxy-3-methyltetrahydrofuran-3-yl)piperazin-1-yl)isoquinolin-3-yl)tetrahydro-2H-pyran-3-carboxamide], the IC50 was 1.38 nM. On to `CC1(N2CCN(c3cc4cc(NC(=O)C5CC5)ncc4cc3Cl)CC2)COCC1O` (single isomer, unassigned) [Ex-1.1, (3R,4R or 3S,4S)-N-(7-chloro-6-(4-(4-hydroxy-3-methyltetrahydrofuran-3-yl)piperazin-1-yl)isoquinolin-3-yl)cyclopropanecarboxamide], for which the IC50 was […]. For the molecule `CC1(N2CCN(c3cc4cc(NC(=O)C5CCC5C#N)ncc4cc3Cl)CC2)COCC1O` (single isomer, unassigned) [Ex-10.39, (1R,2R of 1S,2S)-N-[7-chloro-6-[4-((3R,4R or 3S,4S)-4-hydroxy-3-methyl-tetrahydrofuran-3-yl)piperazin-1-yl]-3-isoquinolyl]-2-cyano-cyclobutanecarboxamide], the IC50 is 0.0813 nM. On to `COc1cc2cnc(NC(=O)C3CC34CCOCC4)cc2cc1N1CCN(C2(C)COCC2O)CC1` (single isomer, unassigned) [Ex-13], for which the IC50 was 3.39 nM.

The values are drawn from patent publication US12516039B2, “N-linked isoquinoline amides as LRRK2 inhibitors, pharmaceutical compositions, and uses thereof” (Merck Sharp & Dohme LLC, priority 2020, dated 2026).
